Measured values taken from patent US11207301B2, “Sphingosine 1 phosphate receptor agonists for neuroprotection” (RECEPTOS LLC, priority 2017, dated 2021).
Entries after “also recorded” stand apart in the source; their conditions may differ.

What was measured:
[1] = system: cuprizone-induced mouse model of demyelination; experiment: Cuprizone-induced mouse model of demyelination / neuroprotection; format: in vivo, C57BL/6 mice
Text: The effect of a S1P receptor agonist on spinal cord axial demyelination or reduction in axonal breaks can be assessed by measuring concentration of neurofilament light chain (NfL) in the plasma. NfL is released to the plasma following axonal injury and degeneration. Histological examination of axons with antineurofilament H non-phosphorylated mouse antibody SMI-32 can also be used to assess axonal demyelination or breaks. NfH is phosphorylated in healthy axons and unphosphorylated in damaged axons. In addition, the effects of ozanimod on the CNS were examined in vivo using the cuprizone-induced mouse model of demyelination and in vitro in primary rodent astrocytes. Efficacy of ozanimod or compound (2-R) was examined in the cuprizone-induced mouse model of neuroprotection. C57BL/6 mice were treated with cuprizone (0.3% weight/weight orally) and rapamycin (10 mg/kg intraperitoneally daily) to demyelinate axons in the brain and concurrently treated with ozanimod (0.1, 0.3, or 1 mg/kg) or compound (2-S) (1 mg/kg) by daily oral gavage to investigate its neuroprotective activity. Neuroprotection was assessed through examination of axonal pathology in the corpus callosum using SMI-32 (antineurofilament H non-phosphorylated mouse monoclonal antibody) staining, functional assessment through kinematic gait analysis and the plasma biomarker neurofilament light chain (NfL). Further, direct activity of ozanimod was examined in resting and activated primary rodent astrocytes in vitro.

Recombinant human MAO-A = biological target: T1, Recombinant human MAO-A (Homo sapiens, UniProt P21397); experiment: MAO-A inhibition, conversion of kynuramine to 4-hydroxyquinoline; format: biochemical; conditions: tested up to 100 μM
T1 construct: purchased Sigma-Aldrich M7316; host or cells: baculovirus infected insect cells
T1 sequence (P21397 1-527): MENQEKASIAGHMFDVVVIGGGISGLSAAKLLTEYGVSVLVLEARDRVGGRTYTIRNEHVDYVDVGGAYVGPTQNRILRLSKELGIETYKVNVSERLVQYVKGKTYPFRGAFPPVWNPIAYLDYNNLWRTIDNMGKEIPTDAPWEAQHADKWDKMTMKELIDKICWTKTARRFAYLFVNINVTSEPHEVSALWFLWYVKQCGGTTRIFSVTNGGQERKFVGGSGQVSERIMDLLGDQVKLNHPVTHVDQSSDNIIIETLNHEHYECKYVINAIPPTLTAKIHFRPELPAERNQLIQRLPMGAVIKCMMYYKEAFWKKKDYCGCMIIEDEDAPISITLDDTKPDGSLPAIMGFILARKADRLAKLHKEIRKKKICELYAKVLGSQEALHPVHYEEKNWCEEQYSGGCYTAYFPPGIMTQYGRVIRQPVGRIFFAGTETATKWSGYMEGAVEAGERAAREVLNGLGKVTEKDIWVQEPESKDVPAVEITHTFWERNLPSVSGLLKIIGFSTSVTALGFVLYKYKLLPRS
Experimental: The effect of a S1P receptoragonist on MAO-B activity can be assessed by measuring the inhibition of conversion of substrate kynuramine to 4-hydroxyquinoline as described in Example 4.
Compound 1 and Compound 2-S were evaluated for their ability to inhibit MAO-A and MAO-B. Inhibition of the conversion of kynuramine, a substrate for MAO-A and MAO-B, to 4-hydroxyquinoline was used to assess the inhibitory potential of Compound 1 and Compound 2-S. Recombinant human MAO-A (product number M7316) and MAO-B (product number M7441) expressed in baculovirus infected insect cells were obtained from Sigma-Aldrich, Saint Louis, Mo. USA were used as a source of purified MAOs.
Recombinant MAO-A (0.01 mg/mL, final concentrations) and MAO-B (0.02 mg/mL, final concentration) were diluted to desired concentrations in 100 mM potassium phosphate buffer (pH 7.4) containing 5 mM MgCl2. The diluted protein fractions were preincubated with various concentrations of each test compound at 37° C. for 2 min. The concentrations used were 100, 33, 10, 3.3, 1.0, 0.33 μM and acetonitrile/DMSO as vehicle control for MAO-A and 1.0, 0.3, 0.1, 0.03, 0.01, 0.003 μM and acetonitrile/DMSO as vehicle control for MAO-B. The reaction was started by addition of kynuramine to the incubation mixture. The final concentration of kynuramine was 40 μM for MAO-A and 25 μM for MAO-B. The total incubation volume was 0.250 mL. […] The reaction product, 4-hydroxyquinoline was analyzed by LC-MS/MS as described below. […]
The gradient system was used to separate the analytes with a flow rate of 0.5 ml/min using mobile phase A, water containing 0.1% formic acid and mobile phase B, acetonitrile containing 0.1% formic acid. […] The analytes were monitored using multiple reaction monitoring and the ion transitions (Q1/Q3) were as follows: 4-hydroxyquinoline 146/104 (collision energy, CE was 27; declustering potential, DP, 50, and IS (acetaminophen), 152/110 (collision energy, CE was 27; declustering potential, DP, 50). All data were analyzed using AB Sciex Analyst v1.6.2 software.

| Compound | overall kinematic gait score ([1]; 0.1, 0.3, or 1 mg/kg vs vehicle (FIG. 3)) | kinematic gait ([1]; cuprizone-induced demyelinated mice vs vehicle, 1 mg/kg (FIG. 2)) | neuroprotection, reduction in swollen and transected axons ([1]; cuprizone-induced mouse model) | MAO-A inhibition (in words) (Recombinant human MAO-A) |
| --- | --- | --- | --- | --- |
| CC(C)Oc1ccc(-c2nc(-c3cccc4c3CC[C@@H]4NCCO)no2)cc1C#N [Ozanimod] | significantly improved overall kinematic gait score | improved kinematic gait | neuroprotective |  |
| CC(C)Oc1ccc(-c2nc(-c3cccc4c3CCC4=O)no2)cc1C#N [Compound 1, 2-isopropoxy-5-(3-(1-oxo-2,3-dihydro-1H-inden-4-yl)-1,2,4-oxadiazol-5-yl)benzonitrile] |  |  |  | not an inhibitor; also recorded: does not inhibit |
